Laboratory results from ChEMBL document CHEMBL1201861, “Genomics of Drug Sensitity in Cancer screening data, Wellcome Trust Sanger Institute”.

Tests used:
REH = assay: cells; format: functional, cell-based, Homo sapiens; conditions: Homo sapiens, REH;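 note: growth inhibition of REH cells determined with a cell viability read-out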
Description: SANGER: Inhibition of human REH cell growth in a cell viability assay.

CAPAN-1 = assay: cells; format: functional, cell-based; conditions: Homo sapiens;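 note: growth suppression of CAPAN-1 cells, read out by a cell viability assay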
Description: SANGER: Inhibition of human CAPAN-1 cell growth in a cell viability assay.

PF-382 = assay: cells; format: functional, cell-based, Homo sapiens; conditions: Homo sapiens, PF-382
Description: SANGER: Inhibition of human PF-382 cell growth in a cell viability assay.

SK-MES-1 = assay: cells; format: functional, cell-based; conditions: Homo sapiens;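 note: growth inhibition of human SK-MES-1 cells, read out with a cell viability assay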
Description: SANGER: Inhibition of human SK-MES-1 cell growth in a cell viability assay.

NCCIT = assay: SANGER: Inhibition of human NCCIT cell growth in a cell viability assay.; format: functional, cell-based; conditions: Homo sapiens, NCCIT
NCI-H2452 = assay: cells; format: functional, cell-based; conditions: Homo sapiens;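 note: growth inhibition of NCI-H2452 cells, read out with a cell viability assay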
Description: SANGER: Inhibition of human NCI-H2452 cell growth in a cell viability assay.

ChaGo-K-1 = assay: cells; format: functional, cell-based; conditions: Homo sapiens;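 note: growth inhibition of ChaGo-K-1 cells, read out with a cell viability assay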
Description: SANGER: Inhibition of human ChaGo-K-1 cell growth in a cell viability assay.

Huh-7 = assay: cells; format: functional, cell-based; conditions: Homo sapiens;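 note: HuH-7 cell growth inhibition, read out with a cell viability assay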
Description: SANGER: Inhibition of human HuH-7 cell growth in a cell viability assay.

EVSA-T = assay: cells; format: functional, cell-based, Homo sapiens; conditions: Homo sapiens, EVSA-T;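 note: growth inhibition of EVSA-T cells, read out with a cell viability assay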
Description: SANGER: Inhibition of human EVSA-T cell growth in a cell viability assay.

NCI-H2087 = assay: cells; format: functional, cell-based; conditions: Homo sapiens;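 note: growth inhibition determined with a cell viability readout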
Description: SANGER: Inhibition of human NCI-H2087 cell growth in a cell viability assay.

NCI-H1755 = assay: cells; format: functional, cell-based; conditions: Homo sapiens;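 note: cell viability readout used to measure growth inhibition of NCI-H1755 cells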
Description: SANGER: Inhibition of human NCI-H1755 cell growth in a cell viability assay.

SW1783 = assay: cells; format: functional, cell-based; conditions: Homo sapiens
Description: SANGER: Inhibition of human SW1783 cell growth in a cell viability assay.

NCI-H1792 = assay: cells; format: functional, cell-based; conditions: Homo sapiens;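 note: growth inhibition of human NCI-H1792 cells, read out as cell viability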
Description: SANGER: Inhibition of human NCI-H1792 cell growth in a cell viability assay.

HPAF-II = assay: cells; format: functional, cell-based; conditions: Homo sapiens;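 note: growth inhibition of HPAF-II cells, read out with a cell viability assay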
Description: SANGER: Inhibition of human HPAF-II cell growth in a cell viability assay.

HCT-116 = assay: cells; format: functional, cell-based; conditions: Homo sapiens
Description: SANGER: Inhibition of human HCT-116 cell growth in a cell viability assay.

SK-MEL-28 = assay: cells; format: functional, cell-based; conditions: Homo sapiens;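 note: growth inhibition of human SK-MEL-28 cells, read out with a cell viability assay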
Description: SANGER: Inhibition of human SK-MEL-28 cell growth in a cell viability assay.

SK-LU-1 = assay: cells; format: functional, cell-based; conditions: Homo sapiens;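 note: cell viability assay measuring growth inhibition of human SK-LU-1 cells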
Description: SANGER: Inhibition of human SK-LU-1 cell growth in a cell viability assay.

HO-1-N-1 = assay: cells; format: functional, cell-based; conditions: Homo sapiens;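 note: growth inhibition of human HO-1-N-1 cells, read out with a cell viability assay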
Description: SANGER: Inhibition of human HO-1-N-1 cell growth in a cell viability assay.

U2OS = assay: cells; format: functional, cell-based, U-2-OS; conditions: Homo sapiens;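 note: growth inhibition of human U-2-OS cells, determined with a cell viability assay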
Description: SANGER: Inhibition of human U-2-OS cell growth in a cell viability assay.

NCI-H1651 = assay: cells; format: functional, cell-based; conditions: Homo sapiens;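 note: Read-out is a cell viability assay, with IC50 expressing inhibition of NCI-H1651 cell growth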
Description: SANGER: Inhibition of human NCI-H1651 cell growth in a cell viability assay.

HGC-27 = assay: cells; format: functional, cell-based; conditions: Homo sapiens;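 note: growth inhibition of human HGC-27 cells, read out in a cell viability assay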
Description: SANGER: Inhibition of human HGC-27 cell growth in a cell viability assay.

MKN-45 = assay: cells; format: functional, cell-based; conditions: Homo sapiens;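 note: growth inhibition of human MKN-45 cells, measured with a cell viability assay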
Description: SANGER: Inhibition of human MKN45 cell growth in a cell viability assay.

BEN = assay: cells; format: functional, cell-based; conditions: Homo sapiens;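 note: growth inhibition of the BEN cell line, read out with a cell viability assay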
Description: SANGER: Inhibition of human BEN cell growth in a cell viability assay.

SiHa = assay: cells; format: functional, cell-based; conditions: Homo sapiens;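 note: Viability-based readout of growth inhibition in SiHa cells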
Description: SANGER: Inhibition of human SiHa cell growth in a cell viability assay.

G-402 = assay: cells; format: functional, cell-based; conditions: Homo sapiens
Description: SANGER: Inhibition of human G-402 cell growth in a cell viability assay.

KYSE-520 cell line = assay: cells; format: functional, cell-based; conditions: Homo sapiens;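 note: growth inhibition of human KYSE-520 cells, read out with a viability assay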
Description: SANGER: Inhibition of human KYSE-520 cell growth in a cell viability assay.

SIG-M5 = assay: cells; format: functional, cell-based, Homo sapiens; conditions: Homo sapiens, SIG-M5;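 note: cell viability assay read-out, measuring how strongly growth of cultured human SIG-M5 cells is inhibited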
Description: SANGER: Inhibition of human SIG-M5 cell growth in a cell viability assay.

SIMA = assay: cells; format: functional, cell-based, Homo sapiens; conditions: Homo sapiens, SIMA;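 note: growth inhibition of SIMA cells, measured with a cell viability readout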
Description: SANGER: Inhibition of human SIMA cell growth in a cell viability assay.

GP5d = assay: cells; format: functional, cell-based; conditions: Homo sapiens;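 note: growth inhibition of human GP5d cells, read out with a cell viability assay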
Description: SANGER: Inhibition of human GP5d cell growth in a cell viability assay.

H4 = assay: cells; format: functional, cell-based; conditions: Homo sapiens
Description: SANGER: Inhibition of human H4 cell growth in a cell viability assay.

NCI-H2141 = assay: cells; format: functional, cell-based, Homo sapiens; conditions: Homo sapiens, NCI-H2141;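 note: growth inhibition of human NCI-H2141 cells, read out with a cell viability assay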
Description: SANGER: Inhibition of human NCI-H2141 cell growth in a cell viability assay.

L-540 = assay: cells; format: functional, cell-based, Homo sapiens; conditions: Homo sapiens, L-540;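 note: growth inhibition of the human L-540 cell line, read out with a viability assay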
Description: SANGER: Inhibition of human L-540 cell growth in a cell viability assay.

LU-99A = assay: cells; format: functional, cell-based; conditions: Homo sapiens;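 note: growth inhibition of LU-99A cells, read out with a cell viability assay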
Description: SANGER: Inhibition of human LU-99A cell growth in a cell viability assay.

A-427 = assay: cells; format: functional, cell-based; conditions: Homo sapiens;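 note: growth inhibition of human A-427 cells, read out by a cell viability assay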
Description: SANGER: Inhibition of human A427 cell growth in a cell viability assay.

M14 = assay: cells; format: functional, cell-based; conditions: Homo sapiens;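 note: growth inhibition of M14 cells, read out with a cell viability assay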
Description: SANGER: Inhibition of human M14 cell growth in a cell viability assay.

SCC-9 = assay: cells; format: functional, cell-based; conditions: Homo sapiens;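 note: Read-out is a cell viability assay, with values giving inhibition of cell growth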
Description: SANGER: Inhibition of human SCC-9 cell growth in a cell viability assay.

NB12 = assay: cells; format: functional, cell-based; conditions: Homo sapiens;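 note: growth inhibition of human NB12 cells, read out by a cell viability assay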
Description: SANGER: Inhibition of human NB12 cell growth in a cell viability assay.

NCI-H1437 = assay: cells; format: functional, cell-based; conditions: Homo sapiens;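 note: growth inhibition of human NCI-H1437 cells, read out by a cell viability assay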
Description: SANGER: Inhibition of human NCI-H1437 cell growth in a cell viability assay.

RCM-1 = assay: cells; format: functional, cell-based; conditions: Homo sapiens;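 note: growth inhibition of the RCM-1 line, determined with a cell viability readout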
Description: SANGER: Inhibition of human RCM-1 cell growth in a cell viability assay.

D-542MG = assay: cells; format: functional, cell-based; conditions: Homo sapiens
Description: SANGER: Inhibition of human D-542MG cell growth in a cell viability assay.

CHP-126 = assay: cells; format: functional, cell-based, Homo sapiens; conditions: Homo sapiens, CHP-126
Description: SANGER: Inhibition of human CHP-126 cell growth in a cell viability assay.

ESS-1 = assay: cells; format: functional, cell-based; conditions: Homo sapiens;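 note: growth inhibition of human ESS-1 cells, read out by a cell viability assay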
Description: SANGER: Inhibition of human ESS-1 cell growth in a cell viability assay.

BXPC-3 = assay: cells; format: functional, cell-based; conditions: Homo sapiens;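 note: growth inhibition of human BxPC-3 cells, read out by a cell viability assay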
Description: SANGER: Inhibition of human BxPC-3 cell growth in a cell viability assay.

T98G = assay: cells; format: functional, cell-based; conditions: Homo sapiens;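 note: growth inhibition of T98G cells, read out by a cell viability assay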
Description: SANGER: Inhibition of human T98G cell growth in a cell viability assay.

NCI-H661 = assay: cells; format: functional, cell-based; conditions: Homo sapiens;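 note: cell viability assay read-out, IC50 being the concentration that inhibits growth of the cells by half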
Description: SANGER: Inhibition of human NCI-H661 cell growth in a cell viability assay.

NCI-H460 = assay: cells; format: functional, cell-based; conditions: Homo sapiens;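 note: cell viability assay scoring growth inhibition of human NCI-H460 cells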
Description: SANGER: Inhibition of human NCI-H460 cell growth in a cell viability assay.

SCLC-21H = assay: cells; format: functional, cell-based, Homo sapiens; conditions: Homo sapiens, SCLC-21H;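 note: growth inhibition of cultured human SCLC-21H cells, read out with a cell viability assay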
Description: SANGER: Inhibition of human SCLC-21H cell growth in a cell viability assay.

GCT = assay: cells; format: functional, cell-based; conditions: Homo sapiens;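 note: GCT cell line proliferation inhibition, read out with a cell viability assay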
Description: SANGER: Inhibition of human GCT cell growth in a cell viability assay.

SKG-IIIa = assay: cells; format: functional, cell-based; conditions: Homo sapiens;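 note: cell growth inhibition, read out with a cell viability assay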
Description: SANGER: Inhibition of human SKG-IIIa cell growth in a cell viability assay.

HSC-2 = assay: cells; format: functional, cell-based; conditions: Homo sapiens;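 note: growth inhibition of human HSC-2 cells, read out by a cell viability assay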
Description: SANGER: Inhibition of human HSC-2 cell growth in a cell viability assay.

CAL-33 = assay: cells; format: functional, cell-based; conditions: Homo sapiens;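 note: growth inhibition of CAL-33 cells, read out with a cell viability assay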
Description: SANGER: Inhibition of human CAL-33 cell growth in a cell viability assay.

T84 = assay: cells; format: functional, cell-based; conditions: Homo sapiens;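 note: growth inhibition measured with a cell viability readout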
Description: SANGER: Inhibition of human T84 cell growth in a cell viability assay.

TE-15 = assay: cells; format: functional, cell-based, Homo sapiens; conditions: Homo sapiens, TE-15;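 note: cell viability readout of growth inhibition in TE-15 cells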
Description: SANGER: Inhibition of human TE-15 cell growth in a cell viability assay.

HT-1376 = assay: cells; format: functional, cell-based; conditions: Homo sapiens
Description: SANGER: Inhibition of human HT-1376 cell growth in a cell viability assay.

NCI-H28 = assay: cells; format: functional, cell-based; conditions: Homo sapiens;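 note: growth inhibition of human NCI-H28 cells, read out as cell viability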
Description: SANGER: Inhibition of human NCI-H28 cell growth in a cell viability assay.

KYSE-450 = assay: cells; format: functional, cell-based; conditions: Homo sapiens;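 note: cell growth inhibition measured by a viability assay in human KYSE-450 cells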
Description: SANGER: Inhibition of human KYSE-450 cell growth in a cell viability assay.

NCI-H2122 = assay: cells; format: functional, cell-based; conditions: Homo sapiens;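 note: growth inhibition of the cells, read out with a cell viability assay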
Description: SANGER: Inhibition of human NCI-H2122 cell growth in a cell viability assay.

MFE-280 = assay: cells; format: functional, cell-based; conditions: Homo sapiens;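 note: growth inhibition of MFE-280 cells, determined with a cell viability readout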
Description: SANGER: Inhibition of human MFE-280 cell growth in a cell viability assay.

HMV-2 cell line = assay: cells; format: functional, cell-based; conditions: Homo sapiens
Description: SANGER: Inhibition of human HMV-II cell growth in a cell viability assay.

Cc1ccc(C(=O)Nc2ccc(CN3CCN(C)CC3)c(C(F)(F)F)c2)cc1C#Cc1cnc2cccnn12 [PONATINIB]
IC50 (REH): > 512 nM
IC50 (CAPAN-1): > 512 nM
IC50 (PF-382): 209 nM
IC50 (SK-MES-1): > 512 nM
IC50 (NCCIT): > 512 nM
IC50 (NCI-H2452): > 512 nM
IC50 (ChaGo-K-1): > 512 nM
IC50 (Huh-7): 278 nM
IC50 (EVSA-T): > 512 nM
IC50 (NCI-H2087): 204 nM
IC50 (NCI-H1755): > 512 nM
IC50 (SW1783): > 512 nM
IC50 (NCI-H1792): > 512 nM
IC50 (HPAF-II): > 512 nM
IC50 (HCT-116): 211 nM
IC50 (SK-MEL-28): > 512 nM
IC50 (SK-LU-1): 315 nM
IC50 (HO-1-N-1): > 512 nM
IC50 (U2OS): > 512 nM
IC50 (NCI-H1651): > 512 nM
IC50 (HGC-27): 294 nM
IC50 (MKN-45): > 512 nM
IC50 (BEN): > 512 nM
IC50 (SiHa): > 512 nM
IC50 (G-402): 63.4 nM
IC50 (KYSE-520 cell line): > 512 nM
IC50 (SIG-M5): 134 nM
IC50 (SIMA): > 512 nM
IC50 (GP5d): > 512 nM
IC50 (H4): 425 nM
IC50 (NCI-H2141): > 512 nM
IC50 (L-540): > 512 nM
IC50 (LU-99A): > 512 nM
IC50 (A-427): 273 nM
IC50 (M14): > 512 nM
IC50 (SCC-9): > 512 nM
IC50 (NB12): > 512 nM
IC50 (NCI-H1437): > 512 nM
IC50 (RCM-1): > 512 nM
IC50 (D-542MG): > 512 nM
IC50 (CHP-126): > 512 nM
IC50 (ESS-1): 478 nM
IC50 (BXPC-3): 350 nM
IC50 (T98G): 193 nM
IC50 (NCI-H661): > 512 nM
IC50 (NCI-H460): > 512 nM
IC50 (SCLC-21H): > 512 nM
IC50 (GCT): > 512 nM
IC50 (SKG-IIIa): > 512 nM
IC50 (HSC-2): > 512 nM
IC50 (CAL-33): > 512 nM
IC50 (T84): > 512 nM
IC50 (TE-15): 261 nM
IC50 (HT-1376): > 512 nM
IC50 (NCI-H28): > 512 nM
IC50 (KYSE-450): 273 nM
IC50 (NCI-H2122): > 512 nM
IC50 (MFE-280): 315 nM
IC50 (HMV-2 cell line): > 512 nM
